{"source": "patent US20160244435A1", "about": "“EXPANDED THERAPEUTIC POTENTIAL IN NITROHETEROARYL ANTIMICROBIALS” (The Regents of the University of California, priority 2013, published 2016)", "key": {"[1]": {"test_system": "Mz-resistant (MzR) G. lamblia 713 line", "test": "microbe, parasite or virus in culture", "format": "cell-based, Giardia lamblia"}, "G. lamblia GS/M": {"test_system": "G. lamblia GS/M", "test": "Murine Giardia infection model", "format": "in vivo, C57BL/6 mice", "details": "single oral dose, data not shown"}, "Giardia": {"test_system": "Giardia", "details": "cited from earlier work"}, "[2]": {"test_system": "Mz-sensitive (MzS) G. lamblia strain 713", "test": "Giardia 48 h growth and survival assay (ATP read-out), Mz-sensitive line", "format": "cell-based, Giardia lamblia", "details": "Giardia duodenalis; sensitive 713 line (MzS cells)"}, "[3]": {"details": "regimen not stated or depending on dosing regimens"}}, "note": "Where two headings read alike, the source gives them in different places.", "data": [{"smiles": "Cc1ncc([N+](=O)[O-])n1CCO", "note": "[Mz, metronidazole]", "values": [{"measurement": "residual activity in MzR compared to MzS cells, 100%×(EC50 in MzS/EC50 in MzR)", "setting": "[1]; 713 syngeneic pair", "result": 4, "unit": "%"}, {"measurement": "EC50", "setting": "[1]; Giardia duodenalis", "result": 50, "unit": "µM"}, {"measurement": "lowest single dose that eradicates giardiasis in at least half of infected mice", "setting": "G. lamblia GS/M", "result": 100, "unit": "mg/kg"}, {"measurement": "efficacy", "setting": "Giardia; single-dose treatment", "result": "20-60%"}, {"measurement": "efficacy (cases in which effective)", "setting": "Giardia; three daily 250 mg oral doses for 5-10 days", "result": "80-95%"}, {"measurement": "EC50", "setting": "[2]", "result": 2, "unit": "µM"}]}, {"smiles": "CCCSc1ccc2nc(NC(=O)OC)[nH]c2c1", "note": "[albendazole]", "values": [{"measurement": "efficacy", "setting": "Giardia; [3]", "result": "25-90%"}]}, {"smiles": "O=C1OCCN1/N=C/c1ccc([N+](=O)[O-])o1", "note": "[furazolidone]", "values": [{"measurement": "efficacy", "setting": "Giardia; [3]", "result": "80-85%"}]}, {"smiles": "CC(=O)Oc1ccccc1C(=O)Nc1ncc([N+](=O)[O-])s1", "note": "[nitazoxanide]", "values": [{"measurement": "efficacy", "setting": "Giardia; two daily 500 mg doses for three days", "result": "70-80%"}]}, {"smiles": "CCN(CC)CCCC(C)Nc1c2ccc(Cl)cc2nc2ccc(OC)cc12", "note": "(stereo not shown) [quinacrine]", "values": [{"measurement": "efficacy", "setting": "Giardia; [3]", "result": "up to 90%"}]}]}
